In patent US9115145B2, “Tocotrienol derivatives and associated methods” (FIRST TECH INTERNATIONAL LIMITED, priority 2011, dated 2015):
Read-outs that look alike come from different tables or passages of the source.

Assays:
[1] = test system: MDA-MB-231 human breast cancer cell line; assay: MTT assay of MDA-MB-231 cells; assay type: cell-based; conditions: Homo sapiens, media containing 5% fetal bovine serum
Description: (§1) MDA-MB-231 and MCF7 cells were plated at a density of 8×10^3 cells/well and 10^4 cells/well in 96-well culture plates, respectively. The compounds were fed in serum free media containing 5% and 1% fetal bovine serum for MDA-MB-231 and MCF7 cells, respectively.

[2] = test system: MCF 10A non-tumorigenic mammary epithelial cells; assay: MTT assay of MCF10A cells; assay type: cell-based, human; conditions: for IC50: Homo sapiens; for Selectivity index: IC50 for MCF 10A divided by IC50 for +SA cell line
Description: MCF 10A (ATCC cat # CRL-10317) normal human non-tumorigenic mammary epithelial cells were maintained in serum-free defined medium consisting of Dulbecco's modified Eagle's medium (DMEM)/F12 containing 5% horse serum, 1% penicillin/streptomycin, 0.5 μg/mL hydrocortisone, 100 ng/mL cholera toxin, 10 μg/mL insulin, and 20 ng/mL epidermal growth factor (rhEGF). For subculturing, cells were rinsed twice with sterile Ca2+ and Mg2+-free phosphate buffered saline (PBS) and incubated in 0.25% trypsin containing 0.025% EDTA in PBS for 5 min at 37° C. The released cells were centrifuged, re-suspended in fresh media and counted using a hemocytometer. For testing, MCF 10A cells were plated at a density of 10×10^4 cells/well. A stock solution of the compounds was prepared in DMSO. DMSO was added to all treatment media such that the final DMSO concentration was the same in all treatment groups within a given experiment and was always less than 0.1%. The compounds were fed in serum free media. MCF10A mammary epithelial cell's viable number was determined by MTT colorimetric assay. […] IC50 values were calculated by non-linear regression using statistical software. The selectivity index indicated in the table represents the IC50 value for the MCF 10A cell line divided by the IC50 value for the +SA cell line.

[3] = test system: MCF7 human breast cancer cell line; assay: MTT assay of MCF7 cells; assay type: cell-based; conditions: Homo sapiens, media containing 1% fetal bovine serum
Description: as §1

[4] = test system: MDA-MB-231 human breast cancer cells; assay: Wound-healing assay (cell migration); assay type: cell-based; conditions: Homo sapiens; for inhibition at 5 µM: MDA-MB-231, 24 h, wound-healing assay; for IC50: MDA-MB-231, wound-healing assay, dose response, read-out: IC50 antimigratory activity
Description: The highly metastatic human breast cancer MDA-MB-231 cells were cultured in RPMI 1640 medium containing 10 mM HEPES, 4 mM L-glutamine, 10% fetal bovine serum, penicillin (100 IU/mL), and streptomycin (50 μg/mL), and grown in a 5% CO2 atmosphere at 37° C. Cells were plated onto sterile 24-well and allowed to recover for a confluent cell monolayer formed in each well (>95% confluence). Wounds were then inflicted to each cell monolayer using a sterile 200 μL pipette tip. Media were removed, cells monolayers were washed twice with PBS, and then fresh media containing test compounds were added to each well. Test compounds were prepared in DMSO at 5 μM concentration and added to the plates, each in triplicate using DMSO as negative control. The incubation was carried out for 24 h under serum-starved conditions, after which media was removed and cells were fixed and stained using a staining composition sold under the trade name Diff Quick (Dade Behring Diagnostics, Aguada, Puerto Rico). The stain comprised a fixative reagent containing 1.8 mg/L triarylmethane dye in methyl alcohol; a first solution of 1 g/L xanthene dye, buffer, and sodium azide (0.01%) as preservative; and a second solution of 1.25 g/L Thiazine dye mixture (0.625 g/L azure A and 0.625 g/L methylene blue) and buffer. The number of cells migrated on the scratched wound were counted under the microscope in three or more randomly selected fields (magnification: 400×). Final results are expressed as mean±SEM per 400× field. The wound-healing assay is a simple method for the study of directional cell migration in vitro.
Compounds were tested for their ability to inhibit the migration of the highly metastatic MDA-MB-231 human breast cancer cells in the wound-healing assay using the procedure described above. Compounds 6, 10, 12, 13, 24, 26, 27, and 29 inhibited the migration of more than 50% of the human breast cancer cells MDA-MB-231 in the wound healing assay at 5 μM dose. […] The antimigratory activity of tocotrienols may be enhanced by a terminal aromatic functionality. The presence of electron withdrawing group, such as nitro in Compound 29, may eliminate the antiproliferative activity yet retain the antimigratory activity of the compound. While the electron donating groups, such as OH and OMe found in Compounds 23 and 26, respectively, retained both antiproliferative and antimigratory activities.
Utilizing similar procedures follow-up testing was conducted on a variety of compounds using a range of compound concentrations. The results of follow-up antimigratory testing are shown in FIG. 35B and Table III below with IC50 values calculated using statistical software.

[5] = MCF-10A, MCF10A cells, Table II, non-linear regression, read-out: MCF10A (IC50)
[6] = MCF 10A non-tumorigenic cells, Table I, read-out: IC50 MCF 10A

Row | Compound | IC50 [1] [µM] | IC50 [2, 5] [µM] | IC50 [2, 6] [µM] | Selectivity index [2] | IC50 [3] [µM] | inhibition at 5 µM [4] [%] | IC50 [4] [µM]
1 | CC(C)=CCC/C(C)=C/CC/C(C)=C/CC[C@]1(C)CCc2c3c(cc(C)c2O1)OCN(CCCCCO)C3 [Compound 18, 5-((R)-6,8-dimethyl-8-((3E,7E)-4,8,12-trimethyltrideca-3,7,11-trienyl)-9,10-dihydrochromeno[5,6-e][1,3]oxazin-2(1H,3H,8H)-yl)pentan-1-ol] | 9 | 4.6 | 4.6 | 6.57 | 9.1 |  | 
2 | CC(C)=CCC/C(C)=C/CC/C(C)=C/CC[C@]1(C)CCc2c3c(c(C)c(C)c2O1)OCN(CCCCCCCCCCO)C3 [Compound 41, 10-((R)-5,6,8-trimethyl-8-((3E,7E)-4,8,12-trimethyltrideca-3,7,11-trienyl)-9,10-dihydrochromeno[5,6-e][1,3]oxazin-2(1H,3H,8H)-yl)decan-1-ol] | 15.7 |  |  |  | 19.4 |  | 
3 | CC(C)=CCC/C(C)=C/CC/C(C)=C/CC[C@]1(C)CCc2c3c(c(C)c(C)c2O1)OCN(CCCO)C3 [Compound 12, 3-((R)-5,6,8-trimethyl-8-((3E,7E)-4,8,12-trimethyltrideca-3,7,11-trienyl)-9,10-dihydrochromeno[5,6-e][1,3]oxazin-2(1H,3H,8H)-yl)propan-1-ol] | 9.6 |  |  |  | > 20 | > 50 | 8.1
4 | CC(C)=CCC/C(C)=C/CC/C(C)=C/CC[C@]1(C)CCc2c3c(cc(C)c2O1)OCN(CCc1ccc(O)cc1)C3 [Compound 27, 4-(2-((R)-6,8-dimethyl-8-((3E,7E)-4,8,12-trimethyltrideca-3,7,11-trienyl)-9,10-dihydrochromeno[5,6-e][1,3]oxazin-2(1H,3H,8H)-yl)ethyl)phenol] | > 5 | 1.9 | 1.9 | 2.09 | 18.2 | > 50 | 2.4
5 | COc1ccc(CCN2COc3cc(C)c4c(c3C2)CC[C@@](C)(CC/C=C(\C)CC/C=C(\C)CCC=C(C)C)O4)cc1OC [Compound 24, (R)-2-(3,4-dimethoxyphenethyl)-6,8-dimethyl-8-((3E,7E)-4,8,12-trimethyltrideca-3,7,11-trienyl)-1,2,3,8,9,10-hexahydrochromeno[5,6-e][1,3]oxazine] |  |  |  |  |  | > 50 | 
6 | CC(C)=CCC/C(C)=C/CC/C(C)=C/CC[C@]1(C)CCc2c3c(c(C)c(C)c2O1)OCN(CCCCCCCCCCCCO)C3 [Compound 43, 12-((R)-5,6,8-trimethyl-8-((3E,7E)-4,8,12-trimethyltrideca-3,7,11-trienyl)-9,10-dihydrochromeno[5,6-e][1,3]oxazin-2(1H,3H,8H)-yl)dodecan-1-ol] | > 50 |  |  |  | > 20 |  | 
7 | CC(C)=CCC/C(C)=C/CC/C(C)=C/CC[C@]1(C)CCc2c3c(c(C)c(C)c2O1)OCN(CCCCCCO)C3 [Compound 37, 6-((R)-5,6,8-trimethyl-8-((3E,7E)-4,8,12-trimethyltrideca-3,7,11-trienyl)-9,10-dihydrochromeno[5,6-e][1,3]oxazin-2(1H,3H,8H)-yl)hexan-1-ol] | > 10 |  |  |  | > 20 |  | 
8 | CC(C)=CCC/C(C)=C/CC/C(C)=C/CC[C@]1(C)CCc2c3c(c(C)c(C)c2O1)OCN(CCCCCCCCO)C3 [Compound 39, 8-((R)-5,6,8-trimethyl-8-((3E,7E)-4,8,12-trimethyltrideca-3,7,11-trienyl)-9,10-dihydrochromeno[5,6-e][1,3]oxazin-2(1H,3H,8H)-yl)octan-1-ol] | > 20 | 2 | 2 | 1.43 | > 20 |  | 4.7
9 | CC(C)=CCC/C(C)=C/CC/C(C)=C/CC[C@]1(C)CCc2c3c(cc(C)c2O1)OCN(CCCCCCCCCCCCO)C3 [Compound 44, 12-((R)-6,8-dimethyl-8-((3E,7E)-4,8,12-trimethyltrideca-3,7,11-trienyl)-9,10-dihydrochromeno[5,6-e][1,3]oxazin-2(1H,3H,8H)-yl)dodecan-1-ol] | > 50 |  |  |  | > 20 |  | 
10 | CC(C)=CCC/C(C)=C/CC/C(C)=C/CC[C@]1(C)CCc2c3c(cc(C)c2O1)OCN(CCO)C3 [Compound 10, 2-((R)-6,8-dimethyl-8-((3E,7E)-4,8,12-trimethyltrideca-3,7,11-trienyl)-9,10-dihydrochromeno[5,6-e][1,3]oxazin-2(1H,3H,8H)-yl)ethanol] | > 5 |  | 3.1 |  | 6 | > 50 | 1.3
11 | CC(C)=CCC/C(C)=C/CC/C(C)=C/CC[C@]1(C)CCc2c3c(c(C)c(C)c2O1)OCN(CCCCO)C3 [Compound 35, 4-((R)-5,6,8-trimethyl-8-((3E,7E)-4,8,12-trimethyltrideca-3,7,11-trienyl)-9,10-dihydrochromeno[5,6-e][1,3]oxazin-2(1H,3H,8H)-yl)butan-1-ol] | 13.8 |  |  |  | > 20 |  | 10.7
12 | CC(C)=CCC/C(C)=C/CC/C(C)=C/CC[C@]1(C)CCc2c3c(cc(C)c2O1)OCN(CCCCCCCCCCO)C3 [Compound 42, 10-((R)-6,8-dimethyl-8-((3E,7E)-4,8,12-trimethyltrideca-3,7,11-trienyl)-9,10-dihydrochromeno[5,6-e][1,3]oxazin-2(1H,3H,8H)-yl)decan-1-ol] | 12.4 |  |  |  | 4.6 |  | 7.2
